The subject of one assay is LoVo cells. Kind of assay: LoVo cell proliferation assay, CTG method. It is filed as cell-based. Particulars: 96 h, median, read-out: 2D-PROLI LoVo CTG 96 h, IC50 - [mol/l] (median). As to the method:
CELL PROLIFERATION ASSAY CTG METHOD, 384-well version: Day 1: plate 400 cells/30 μL/well in growth medium (RPMI 1640 (Gibco #61870-10; with Glutamax)+10% FBS) in 384-well black plates (Corning #3571). Plated sister wells in a separate plate for time zero determination. Incubated all plates overnight at 37° C. Day 2: added test compounds in serial dilutions using the HP D300 Digital Dispenser and incubate at 37° C. for 96 h. Measured time zero plate: add 30 μL/well CTG solution (Promega CellTiter-Glo solution (catalog #G7573)) to wells in time zero plate; incubated for 2 minutes in a orbital shaker to induce cell lysis; allowed the plate to incubate at room temperature for additional 10 min to stabilize luminescent signal and read luminescence on PheraStar (rapid mode-0.02 sec/well; GAIN 3000). Day 6: Added 30 μL/well CTG solution to all test wells, incubated for 2 minutes in a orbital shaker to induce cell lysis; allowed the plate to incubate at room temperature for additional 10 min to stabilize luminescent signal and read luminescence on PheraStar (rapid mode-0.02 sec/well; GAIN 3000). Proliferation IC50s were calculated using the DRC application in ShiNy Analysis Platform-SNAP.”

Another assay has as its target human CSNK1A1 (Homo sapiens (Human), UniProt P48729). Description: CSNK1A1 high ATP assay (ADP-Glo, 1 mM ATP). The format is biochemical. The note with it: median, read-out: CSNK1A1 High ATP assay IC50 [mol/l] (median). As to the method:
CSNK1A1-inhibitory activity of compounds of the present invention in presence of 1 mM adenosine-tri-phosphate (ATP) was quantified employing the CSNK1A1-high-ATP-assay as described in the following paragraphs. In essence, the enzyme activity is measured by quantification of the adenosine-di-phosphate (ADP), which is generated as a co-product of the enzyme reaction, via the “ADP-Glo™ Kinase Assay” kit from the company Promega. This detection system works as follows: In a first step the ATP not consumed in the kinase reaction is quantitatively converted to CAMP employing an adenylate cyclase (“ADP-Glo-reagent”), then the adenylate cyclase is stopped and the ADP generated in the kinase reaction converted to ATP which generates in a luciferase-based reaction a glow-luminescence signal (“Kinase Detection Reagent”).
Recombinant fusion protein of N-terminal Glutathion-S-Transferase (GST) and full-length human CSNK1A1, expressed by baculovirus infected insect cells and purified via Glutathion affinity chromatography, was purchased from Life Technologies (product no. PV4174) and used as enzyme. As substrate for the kinase reaction the biotinylated peptide biotin-Ahx-KRRRAL-pS-VASLPGL (C-terminus in amide form) was used which can be purchased e.g. from the company Biosyntan (Berlin-Buch, Germany).
For the assay 50 nl of a 100 fold concentrated solution of the test compound in DMSO was pipetted into a white low volume 384-well microtiter plate (Greiner Bio-One, Frickenhausen, Germany), 2 μL of a solution of CSNK1A1 in aqueous assay buffer [50 mM HEPES pH 7.5, 10% (v/v) glycerol, 10 mM MgCl2, 50 mM NaCl, 1 mM dithiothreitol, 0.01% (w/v) bovine serum albumin, 0.01% (v/v) Triton X-100] were added and the mixture was incubated for 15 min at 22° C. to allow pre-binding of the test compounds to the enzyme before the start of the kinase reaction. Then the kinase reaction was started by the addition of 3 μL of a solution of ATP (1.67 mM=>final conc. in the 5 μL assay volume is 1 mM) and peptide substrate (167 μM=>final conc. in the 5 μL assay volume is 100 μM) in assay buffer and the resulting mixture was incubated for a reaction time of 30 min at 22° C. The concentration of CSNK1A1 was adjusted depending of the activity of the enzyme lot and was chosen appropriate to have the assay in the linear range, a typical concentration is about 0.4 ng/μL. The reaction was stopped by the addition of 2.5 μL of “ADP-Glo-reagent” (1:1.5 fold diluted with water) and the resulting mixture was incubated at 22° C. for 1 h to convert the ATP not consumed in the kinase reaction completely to CAMP. Subsequently 2.5 μL of the “kinase detection reagent” (1.2 fold more concentrated than recommended by the producer) were added, the resulting mixture was incubated at 22° C. for 1 h and then the luminescence measured with a suitable measurement instrument (e.g. Viewlux™ from Perkin-Elmer). The amount of emitted light was taken as a measure for the amount of ADP generated and thereby for the activity of the CSNK1A1.
The data were normalised (enzyme reaction without inhibitor=0% inhibition, all other assay components but no enzyme=100% inhibition).

The test system of a further assay is HCT 116 cells. Description: HCT 116 cell proliferation assay, CTG. It is filed as cell-based. The note with it: HCT 116, CTG, 96 h, median, read-out: 2D-PROLI HCT 116 CTG 96 h, IC50 - [mol/l] (median). As to the method:
400 HCT 116 cells/30 μL/well were plated in growth medium (DMEM/Ham's F12, 10% FCS) in a 384-well plate (CORNING #3571) at day 1. Reference plate was seeded for time zero determination. All plates were incubated overnight 37° C. Day 2: test compound was added in 7-step dilution and incubate at 37° C. for 96 h. Day 2: time zero plate: 30 μL/well CTG solution (Promega Cell Titer Glo solution; catalog #G755B and G756B) were added, incubated for 30 minutes, read luminescence on PheraStar. Day 6: compound treated plates: 30 μL/well CTG solution (Promega Cell Titer Glo solution; catalog #G755B and G756B) were added, incubated for 30 minutes, luminescence was read on PheraStar. Proliferation was calculated after subtracting time zero luminescence values from day 6 values and comparing to untreated wells. The IC50 values were determined using the four parameter fit.

Molecules are shown by their SMILES. Where two headings read alike, the source gives them in different places.

Sequence of human CSNK1A1 (P48729 whole entry): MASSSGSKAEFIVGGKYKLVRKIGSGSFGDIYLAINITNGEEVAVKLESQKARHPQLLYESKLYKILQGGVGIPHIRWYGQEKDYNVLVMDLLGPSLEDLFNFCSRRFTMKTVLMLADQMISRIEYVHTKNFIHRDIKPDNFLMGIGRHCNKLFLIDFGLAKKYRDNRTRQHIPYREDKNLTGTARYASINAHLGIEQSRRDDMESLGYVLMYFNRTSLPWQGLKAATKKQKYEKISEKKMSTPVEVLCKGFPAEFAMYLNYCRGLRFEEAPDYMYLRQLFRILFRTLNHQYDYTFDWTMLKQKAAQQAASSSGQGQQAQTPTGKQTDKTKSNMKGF

In the case of `Cc1nc(C)c(CC(=O)Nc2cc(-c3[nH]c4cccnc4c3-c3ccccn3)ccn2)s1` [Example 18, 2-(2,4-dimethylthiazol-5-yl)-N-[4-[3-(2-pyridyl)-^1H-pyrrolo[3,2-b]pyridin-2-yl]-2-pyridyl]acetamide], the IC50 in the assay on LoVo cells (Homo sapiens) was determined as 1130 nM; on human CSNK1A1, 14.1 nM; in the assay with HCT 116 cells (Homo sapiens) it was 179 nM.
As to `Cn1cc(C(CC(F)F)C(=O)Nc2cc(-c3[nH]c4cccnc4c3-c3ccccn3)ccn2)cn1` (stereo not drawn) [Example 19, 4,4-difluoro-2-(1-methylpyrazol-4-yl)-N-[4-[3-(2-pyridyl)-^1H-pyrrolo[3,2-b]pyridin-2-yl]-2-pyridyl]butanamide], the IC50 in the assay with LoVo cells (Homo sapiens) came to 5500 nM; on human CSNK1A1, 291 nM; in the assay with HCT 116 cells (Homo sapiens) it was 1680 nM.
With `O=C(Cc1ccn(CC(F)(F)F)n1)Nc1cc(-c2[nH]c3cccnc3c2-c2ccccn2)ccn1` [Example 20, N-[4-[3-(2-pyridyl)-^1H-pyrrolo[3,2-b]pyridin-2-yl]-2-pyridyl]-2-[1-(2,2,2-trifluoroethyl)pyrazol-3-yl]acetamide], the IC50 in the assay on LoVo cells (Homo sapiens) came to 1370 nM; at human CSNK1A1, 98.7 nM; with HCT 116 cells (Homo sapiens), 344 nM.
Taken in the same sequence, the figures for `Cn1nc(CC(=O)Nc2cc(-c3[nH]c4cccnc4c3-c3ccccn3)ccn2)cc1C(F)(F)F` [Example 21, 2-[1-methyl-5-(trifluoromethyl)pyrazol-3-yl]-N-[4-[3-(2-pyridyl)-^1H-pyrrolo[3,2-b]pyridin-2-yl]-2-pyridyl]acetamide] were 427 nM, 86.6 nM and 362 nM.
Taken in the same sequence, the figures for `O=C(Cc1ccns1)Nc1cc(-c2[nH]c3cccnc3c2-c2ccccn2)ccn1` [Example 22, 2-isothiazol-5-yl-N-[4-[3-(2-pyridyl)-^1H-pyrrolo[3,2-b]pyridin-2-yl]-2-pyridyl]acetamide] were 2000 nM, 41.2 nM and 357 nM.
Taken in the same sequence, the figures for `O=C(Cc1ccno1)Nc1cc(-c2[nH]c3cccnc3c2-c2ccccn2)ccn1` [Example 23, 2-isoxazol-5-yl-N-[4-[3-(2-pyridyl)-^1H-pyrrolo[3,2-b]pyridin-2-yl]-2-pyridyl]acetamide] were 5410 nM, 50.1 nM and 553 nM.
Regarding `Cc1cc(CC(=O)Nc2cc(-c3[nH]c4cccnc4c3-c3ccccn3)ccn2)no1` [Example 26, 2-(5-methylisoxazol-3-yl)-N-[4-[3-(2-pyridyl)-^1H-pyrrolo[3,2-b]pyridin-2-yl]-2-pyridyl]acetamide], the IC50 with LoVo cells (Homo sapiens) came to 2100 nM; at human CSNK1A1 it was 90.8 nM; with HCT 116 cells (Homo sapiens), 496 nM.
Taken in the same sequence, the figures for `O=C(Cc1cc(C2CC2)on1)Nc1cc(-c2[nH]c3cccnc3c2-c2ccccn2)ccn1` [Example 27, 2-(5-cyclopropylisoxazol-3-yl)-N-[4-[3-(2-pyridyl)-^1H-pyrrolo[3,2-b]pyridin-2-yl]-2-pyridyl]acetamide] were 749 nM, 244 nM and 489 nM.
Taken in the same sequence, the figures for `Cn1nc(CC(=O)Nc2cc(-c3[nH]c4cccnc4c3-c3ccccn3)ccn2)cc1C1CC1` [Example 29, 2-(5-cyclopropyl-1-methyl-pyrazol-3-yl)-N-[4-[3-(2-pyridyl)-^1H-pyrrolo[3,2-b]pyridin-2-yl]-2-pyridyl]acetamide] were 782 nM, 188 nM and 518 nM.
For `O=C(Nc1cc(-c2[nH]c3nccnc3c2-c2ccccn2)ccn1)[C@@H](CC(F)F)c1ccc(F)cc1` [Example C1, reference compound], the IC50 in the assay on LoVo cells turned out to be 211 nM; at human CSNK1A1 it was 20.1 nM; with HCT 116 cells, 429 nM.
For `O=C(Nc1cc(-c2[nH]c3ccc(F)nc3c2-c2ccccn2)ccn1)[C@@H](CC(F)F)c1ccc(F)cc1` [Example C2, reference compound] the same measures were 115 nM, 5.27 nM and 184 nM.
`O=C(Nc1cc(-c2[nH]c3c(OCC(F)F)ncnc3c2-c2ccccn2)ccn1)[C@@H](CC(F)F)c1ccc(F)cc1` [Example C3, reference compound]: the IC50 in the assay on LoVo cells was determined as 115 nM; at human CSNK1A1 it was 8.84 nM; in the assay on HCT 116 cells, 735 nM.

The values are drawn from patent US20250188075A1, “SUBSTITUTED HETEROCYCLIC CSNK1 INHIBITORS” (The Broad Institute, Inc., priority 2022, published 2025).
